{"source": "patent US4283381A", "about": "“Triiodinated aminoacetamido isophthalamide x-ray contrast agents” (Schering Aktiengesellschaft, priority 1979, dated 1981)", "key": {"Iodine content of salt": {"assay": "Iodine content of salt", "format": "physicochemical"}, "Rat (100 g)": {"tested_on": "Rat (100 g)", "assay": "LD50 rat, intravenous injection", "format": "in vivo", "details": "solution 300 mg iodine/ml, injection rate 2 ml/min", "protocol": "(§1) LD50 on mice and rats was determined after intravenous injection of\n(§2) the solutions containing 300 mg iodine/ml with an injection rate of 2"}, "[1]": {"assay": "Molarity (and thus osmotic pressure) of solution with 300 mg iodine", "format": "physicochemical", "details": "300 mg iodine/ml"}, "Mouse (20 g)": {"tested_on": "Mouse (20 g)", "assay": "LD50 mouse, intravenous injection", "format": "in vivo", "details": "solution 300 mg iodine/ml, injection rate 2 ml/min", "protocol": "as §1, §2"}, "[2]": {"assay": "Viscosity of solution with 300 mg iodine/ml, 37° C.", "format": "physicochemical"}}}
{"smiles": "NCC(=O)Nc1c(I)c(C(=O)NCCO)c(I)c(C(=O)NCCO)c1I", "note": "[A-Iothalamate, 5-aminoacetamido-2,4,6-triiodoisophthalic acid bis(2-hydroxyethyl)amide iothalamate]", "values": [{"measurement": "Iodine content of salt", "setting": "Iodine content of salt", "value": 58, "unit": "%"}, {"measurement": "LD50 Rat (100 g) g iodine/kg", "setting": "Rat (100 g)", "value": "≥ 10", "unit": "g iodine/kg"}, {"measurement": "Molarity of solution with 300 mg iodine", "setting": "[1]", "value": 0.394, "unit": "mol/L"}, {"measurement": "LD50 Mouse (20 g) g iodine/kg", "setting": "Mouse (20 g)", "value": "≥ 10.5", "unit": "g iodine/kg"}, {"measurement": "Viscosity of solution with 300 mg iodine/ml, 37° C. in centipoises", "setting": "[2]", "value": 2.4, "unit": "centipoises"}]}
{"smiles": "CN(CC(O)CO)C(=O)c1c(I)c(NC(=O)CN)c(I)c(C(=O)N(C)CC(O)CO)c1I", "note": "(centres unmarked) [B-Amidotrizoate, 5-amidoacetamido-2,4,6-isophthalic acid bis(N-methyl-2,3-dihydroxypropyl) diamide amidotrizoate]", "values": [{"measurement": "Iodine content of salt", "setting": "Iodine content of salt", "value": 54, "unit": "%"}, {"measurement": "LD50 Rat (100 g) g iodine/kg", "setting": "Rat (100 g)", "value": "≥ 10", "unit": "g iodine/kg"}, {"measurement": "Molarity of solution with 300 mg iodine", "setting": "[1]", "value": 0.394, "unit": "mol/L"}, {"measurement": "Viscosity of solution with 300 mg iodine/ml, 37° C. in centipoises", "setting": "[2]", "value": 3.5, "unit": "centipoises"}]}
{"smiles": "CC(=O)Nc1c(I)c(NC(C)=O)c(I)c(C(=O)O)c1I", "note": "[Megl. Amidotrizoate]", "values": [{"measurement": "Iodine content of salt", "setting": "Iodine content of salt", "value": 47, "unit": "%"}, {"measurement": "LD50 Rat (100 g) g iodine/kg", "setting": "Rat (100 g)", "value": 7.5, "unit": "g iodine/kg"}, {"measurement": "Molarity of solution with 300 mg iodine", "setting": "[1]", "value": 0.787, "unit": "mol/L"}, {"measurement": "Viscosity of solution with 300 mg iodine/ml, 37° C. in centipoises", "setting": "[2]", "value": 5.0, "unit": "centipoises"}]}
{"smiles": "CNC(=O)c1c(I)c(NC(C)=O)c(I)c(C(=O)O)c1I", "note": "[Megl. Iothalamate]", "values": [{"measurement": "Iodine content of salt", "setting": "Iodine content of salt", "value": 47, "unit": "%"}, {"measurement": "LD50 Rat (100 g) g iodine/kg", "setting": "Rat (100 g)", "value": 7.4, "unit": "g iodine/kg"}, {"measurement": "Molarity of solution with 300 mg iodine", "setting": "[1]", "value": 0.787, "unit": "mol/L"}, {"measurement": "LD50 Mouse (20 g) g iodine/kg", "setting": "Mouse (20 g)", "value": 4.5, "unit": "g iodine/kg"}, {"measurement": "Viscosity of solution with 300 mg iodine/ml, 37° C. in centipoises", "setting": "[2]", "value": 5.2, "unit": "centipoises"}]}
{"smiles": "CNC(=O)c1c(I)c(NC(C)=O)c(I)c(C(=O)O)c1I", "note": "[Na-Iothalamate]", "values": [{"measurement": "Iodine content of salt", "setting": "Iodine content of salt", "value": 60, "unit": "%"}, {"measurement": "LD50 Rat (100 g) g iodine/kg", "setting": "Rat (100 g)", "value": 7.0, "unit": "g iodine/kg"}, {"measurement": "Molarity of solution with 300 mg iodine", "setting": "[1]", "value": 0.787, "unit": "mol/L"}, {"measurement": "LD50 Mouse (20 g) g iodine/kg", "setting": "Mouse (20 g)", "value": 8.0, "unit": "g iodine/kg"}, {"measurement": "Viscosity of solution with 300 mg iodine/ml, 37° C. in centipoises", "setting": "[2]", "value": 2.7, "unit": "centipoises"}]}
